Consider nine compounds from ChEMBL document CHEMBL5376025, “Colorectal anticancer activity of a novel class of triazolic triarylmethane derivatives” (RSC Med Chem, 2024).

Active and inactive are the calls of the source. The calls are words filed in the database; no cut-off is given here.

For one series, the system named is L929. Briefly: Cytotoxicity against mouse L929 cells assessed as reduction in cell viability at 0.78 to 100 uM measured after 24 hrs by MTT colorimetric assay. To be noted: l929, 24 h, dose 0.78-100 µM. It counts as toxicity, cell-based. On the technique in general: Tetrazolium dyes change colour on reduction, which living cells bring about.
For series [1], the system named is HT-29. Briefly: Antiproliferative activity against human HT-29 cells assessed as inhibition of cell growth measured after 48 hrs by MTT assay. It counts as functional, cell-based. As to conditions: HT-29, 48 h.
In series [2] the test system is HCT-116. Briefly: Antiproliferative activity against human HCT-116 cells assessed as inhibition of cell growth measured after 48 hrs by MTT assay. It counts as functional, cell-based. To be noted: HCT-116, 48 h.
Series [3] in a line: Cytotoxicity against mouse L929 cells assessed as cell survival at 0.78 to 100 uM measured after 24 hrs by MTT colorimetric assay relative to control. It counts as toxicity, cell-based. To be noted: dose 0.78-100 µM, read-out: Activity.
Series [4] has as its system HT-29. Briefly: Induction of apoptosis in human HT-29 cells assessed as inhibition of capsase-3 expression measured after 24 to 48 hrs by Western blot analysis. It counts as functional, cell-based. As to conditions: time 24-48 hrs. On the technique in general: A western blot detects proteins with antibodies after separation by electrophoresis.
For series [5], the system named is HT-29. Briefly: Induction of apoptosis in human HT-29 cells assessed as increase in cleaved PARP expression measured after 48 hrs by Western blot analysis. It counts as functional, cell-based.
Series [6] deals with HCT-116. Briefly: Induction of apoptosis in human HCT-116 cells assessed as inhibition of ERK phosphorylation level measured after 12 hrs by Western blotting analysis. It counts as functional, cell-based.
The test system of series [7] is HT-29. Briefly: Induction of apoptosis in human HT-29 cells assessed as fold increase in DNA fragmentation measured after 48 hrs by ELISA method. It counts as functional. For orientation: An ELISA detects its analyte on a solid surface through an enzyme-linked reagent.
In series [8] the test system is HCT-116. Briefly: Induction of apoptosis in human HCT-116 cells assessed as increase in cleaved PARP expression measured after 24 to 48 hrs by Western blot analysis. To be noted: time 24-48 hrs. It counts as functional, cell-based.
In series [9] the test system is HCT-116. Briefly: Induction of apoptosis in human HCT-116 cells assessed as downregulation of Akt phosphorylation level measured after 6 hrs by Western blotting analysis. It counts as functional, cell-based.
In series [10] the test system is HT-29. Briefly: Induction of apoptosis in human HT-29 cells assessed as increase in cleaved caspase-3 expression measured after 24 to 48 hrs by Western blot analysis. It counts as functional, cell-based. As to conditions: time 24-48 hrs.
For series [11], the system named is HCT-116. Briefly: Induction of apoptosis in human HCT-116 cells assessed as increase in cleaved caspase-3 expression measured after 24 hrs by Western blot analysis. It counts as functional, cell-based.
The subject of series [12] is HCT-116. Briefly: Induction of apoptosis in human HCT-116 cells assessed as upregulation of Akt expression level measured after 6 to 12 hrs by Western blotting analysis. It counts as functional, cell-based. As to conditions: time 6-12 hrs.
The test system of series [13] is HCT-116. Briefly: Induction of apoptosis in human HCT-116 cells assessed as activation of p38 measured after 6 to 12 hrs by Western blotting analysis. As to conditions: time 6-12 hrs. It counts as functional, cell-based.
Series [14] relates to HT-29. Briefly: Induction of apoptosis in human HT-29 cells assessed as inhibition of PARP expression by Western blot analysis. It counts as functional, cell-based. To be noted: time 24-48 hrs, TDE = time-dependent effect.
Series [15] has as its system HCT-116. Briefly: Induction of apoptosis in human HCT-116 cells assessed as fold increase in DNA fragmentation measured after 48 hrs by ELISA method. It counts as functional.
In series [16] the test system is HCT-116. Briefly: Induction of apoptosis in human HCT-116 cells assessed as effect on ERK expression level measured after 6 to 12 hrs by Western blotting analysis. It counts as functional, cell-based. To be noted: time 6-12 hrs.
The test system of series [17] is HCT-116. Briefly: Induction of apoptosis in human HCT-116 cells assessed as inhibition of PARP expression by Western blot analysis. It counts as functional, cell-based. As to conditions: time 24-48 hrs, TDE = time-dependent effect.
In series [18] the test system is HCT-116. Briefly: Induction of apoptosis in human HCT-116 cells assessed as increase in cleaved caspase-3 expression measured after 48 hrs by Western blot analysis. It counts as functional, cell-based.
Series [19] has as its system HCT-116. Briefly: Induction of apoptosis in human HCT-116 cells assessed as inhibition of capsase-3 expression measured after 24 to 48 hrs by Western blot analysis. It counts as functional, cell-based. To be noted: time 24-48 hrs.
Series [20] concerns HCT-116. Briefly: Induction of apoptosis in human HCT-116 cells assessed as decrease in ERK phosphorylation level measured after 6 hrs by Western blotting analysis. It counts as functional, cell-based.
Series [21] has as its system HT-29. Briefly: Antiproliferative activity against human HT-29 cells assessed as inhibition of cell growth at 50 uM measured after 48 hrs by MTT assay. As to conditions: HT-29, 48 h. It counts as functional, cell-based.
Series [22] concerns HCT-116. Briefly: Antiproliferative activity against human HCT-116 cells assessed as inhibition of cell growth at 50 uM measured after 48 hrs by MTT assay. It counts as functional, cell-based. To be noted: HCT-116, 48 h.

Broadly, the IC50 is the concentration that inhibits the measured activity by half.

For the compound `c1ccc(Cn2cc(COc3ccc(C(c4ccc(OCc5cn(Cc6ccccc6)nn5)cc4)c4ccccn4)cc3)nn2)cc1`, the Activity entry in the series with L929 is “Non-Toxic”. In addition, the IC50 with HT-29 [1] and in the series with HCT-116 [2] was greater than 50 µM in each case. Moreover, the viability at 24 h, up to 100 µM in series [3] is 100%.

With `c1ccc(C(c2ccc(OCc3cn(CCN4CCCCC4)nn3)cc2)c2ccc(OCc3cn(CCN4CCCCC4)nn3)cc2)nc1`, the result in the series on HT-29 [4], with HT-29 [5], in the series with HCT-116 [6], in the series on HCT-116 [8], in the series with HCT-116 [9] and in the series on HT-29 [10] was Active. Moreover, the outcome with HCT-116 [12], with HCT-116 [18], in the series with HCT-116 [19] and in the series with HCT-116 [20] was Active. For the same compound, the figures for the “fold change (FC)” value in the series on HT-29 [7] and in the series with HCT-116 [15] were 5.37 and 6.73, respectively. The Activity result in the series with L929 is “Non-Toxic”; in the series on HT-29 [14], “Tde”; in the series on HCT-116 [17] it was “Tde”. In addition, the outcome with HCT-116 [11], with HCT-116 [13] and in the series with HCT-116 [16] was inactive. Also, the IC50 in the series with HT-29 [1] amounted to 11 µM; in the series with HCT-116 [2], 14.4 µM. In series [3], the viability at 24 h, up to 100 µM was 100%.

Take `O[C@@H]1[C@@H](O)[C@@H](O)O[C@H](Cn2cc(COc3ccc(C(c4ccc(OCc5cn(C[C@H]6O[C@H](O)[C@H](O)[C@@H](O)[C@H]6O)nn5)cc4)c4ccccn4)cc3)nn2)[C@@H]1O` (some centres undefined): the IC50 with HT-29 [1] and in the series on HCT-116 [2] was greater than 50 µM throughout.

Turning to `OC[C@@H](O)[C@H]1O[C@H](O)[C@H](O)[C@H]1n1cc(COc2ccc(C(c3ccc(OCc4cn([C@@H]5[C@@H](O)[C@@H](O)O[C@@H]5[C@H](O)CO)nn4)cc3)c3ccccn3)cc2)nn1` (some centres undefined), the IC50 in the series on HT-29 [1] and in the series with HCT-116 [2] was greater than 50 µM in each case.

`c1ccc(C(c2ccc(OCc3cn(C[C@H]4CCCN4)nn3)cc2)c2ccc(OCc3cn(C[C@H]4CCCN4)nn3)cc2)nc1`: the Activity entry with L929 is recorded as “Non-Toxic”. For the same compound, the IC50 in the series with HT-29 [1] and in the series with HCT-116 [2] was greater than 50 µM each time. The viability at 24 h, up to 100 µM in [3] turned out to be 100%.

On to `[O-][n+]1ccccc1C(c1ccc(OCc2cn(CCN3CCCCC3)nn2)cc1)c1ccc(OCc2cn(CCN3CCCCC3)nn2)cc1`, for which the IC50 in the series on HT-29 [21], in the series on HT-29 [1], in the series with HCT-116 [2] and in the series with HCT-116 [22] was greater than 50 µM each time.

Take `C#CCOc1ccc(C(c2ccc(OCc3cnnn3CCCN)cc2)c2ccccn2)cc1` (centres undefined): the Activity entry in the series on L929 is “Non-Toxic”. The IC50 in the series on HT-29 [1] and in the series on HCT-116 [2] was greater than 50 µM each time. Moreover, the viability at 24 h, up to 100 µM in series [3] is 100%.

Regarding `C#CCOc1ccc(C(c2ccc(OCc3cn(Cc4ccccc4)nn3)cc2)c2ccccn2)cc1` (centres undefined), the Activity result with L929 is given as “Non-Toxic”. The IC50 with HT-29 [1] and with HCT-116 [2] was greater than 50 µM in each case. For the same compound, in series [3], the viability at 24 h, up to 100 µM came out at 100%.

For `C#CCOc1ccc(C(c2ccc(OCc3cn(CCN4CCCCC4)nn3)cc2)c2ccccn2)cc1` (centres undefined), the Activity result in the series on L929 is on record as “Non-Toxic”. In addition, the figures for the IC50 in the series with HT-29 [1] and in the series with HCT-116 [2] were 24.7 µM and 45 µM, respectively. Also, the viability at 24 h, up to 100 µM in series [3] was 100%.
